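Protocol summary: plate cells (96-well), add compound at 5 concentrations, incubate 48 h, interpolate endpoints linearly. Abbreviation: GI50, concentration required for 50% inhibition of growth. TGI denotes the concentration required for complete inhibition of growth.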
Experiments:
Assay in all cases: NCI-60 cell line screen, 48 h
[1] = tested on: BT-549 breast
[2] = tested on: UO-31 renal
[3] = tested on: HOP-62 NSCLC
[4] = tested on: K-562 leukemia
[5] = tested on: OVCAR-8 ovarian
[6] = tested on: HS 578T breast
[7] = tested on: MALME-3M melanoma
[8] = tested on: OVCAR-5 ovarian

| Structure (SMILES) | TGI [1] | TGI [2] | TGI [3] | TGI [4] | TGI [5] | TGI [6] | TGI [7] | TGI [8] | GI50 [1] | GI50 [2] | GI50 [6] | GI50 [7] | GI50 [8] | GI50 [3] | GI50 [4] | GI50 [5] |
| --- | --- | --- | --- | --- | --- | --- | --- | --- | --- | --- | --- | --- | --- | --- | --- | --- |
| OC1(c2ccccc2)C2CC=CC2C1(c1ccccc1)c1ccccc1 (configuration not stated) | > 100 µM | > 100 µM | > 100 µM | > 100 µM | > 100 µM | > 100 µM | 53 µM | > 100 µM |  |  |  |  |  |  |  |  |
| C=C(C)[C@@H]1CCC=C2CC[C@]3(C)[C@H](CC[C@@H]4[C@@]5(C)CCCNC(C)(C)[C@@H]5CC[C@]43C)[C@H]21 | 20.7 µM | 2.99 µM |  |  |  | 4.87 µM | 3.74 µM | 4.46 µM | 4.5 µM | 1.53 µM | 2.01 µM | 1.77 µM | 2.01 µM |  |  |  |
| CCCCC(SC(=S)N1CCCC1)C(=O)Nc1nc(CC(=O)OCC)cs1 (configuration not stated) | > 100 µM | > 100 µM | > 100 µM | > 100 µM | > 100 µM | > 100 µM | > 100 µM | > 100 µM | 59.7 µM | 36.9 µM | > 100 µM | > 100 µM | 37.2 µM | > 100 µM | 15.6 µM | 40.1 µM |
| CCCCNNC(=O)c1ccc(Br)cc1 | > 50 µM | > 35.1 µM | > 34.2 µM | > 50 µM | > 50 µM | > 50 µM | > 50 µM | > 15.3 µM | 17 µM | 2.36 µM | 4.27 µM | 1.7 µM | 1.01 µM | 2.98 µM | 2.02 µM | 1.5 µM |
| CCC(=O)N1C/C(=C/c2ccc(Cl)cc2)C(=O)/C(=C/c2ccc(Cl)cc2)C1 | 1.52 µM | 2.5 µM | 1.53 µM |  | 2.12 µM | 6.05 µM | 4.08 µM | 3 µM | 0.462 µM | 1.15 µM | 2.06 µM | 2.06 µM | 1.48 µM | 0.499 µM | 0.317 µM | 0.451 µM |
| C=CO/N=[N+](\[O-])N(CC)CC |  |  | > 100 µM | > 100 µM | > 100 µM | > 100 µM | > 100 µM | > 100 µM |  |  |  |  |  |  |  |  |
| C=C1C(=O)O[C@H]2[C@H]1CC/C(COC(=O)CCCCCC(=O)OC/C1=C/CC[C@@]3(C)O[C@H]3[C@H]3OC(=O)C(=C)[C@@H]3CC1)=C\CC[C@@]1(C)O[C@@H]21 | 3.02 µM | 2.86 µM | 6.46 µM | 10.2 µM | 9.71 µM | 22 µM | 5.08 µM | 4.17 µM | 1.44 µM | 1.25 µM | 2.72 µM | 2.09 µM | 1.97 µM | 2.34 µM | 1.18 µM | 2.65 µM |
| Nc1ccn(C2CC(F)C(CO)O2)c(=O)n1 (configuration not stated) | > 100 µM | > 100 µM | > 100 µM | > 100 µM | > 100 µM | > 100 µM | > 100 µM | > 100 µM | > 100 µM | > 100 µM | > 100 µM | > 100 µM | > 100 µM | > 100 µM | > 100 µM | > 100 µM |
| C#C[C@]1(O)CC[C@H]2[C@@H]3CC=C4c5sc(Nc6cc(F)ccc6F)nc5CC[C@]4(C)[C@H]3CC[C@@]21C | 2.43 µM | 2.35 µM | 5.7 µM | > 100 µM | 12.1 µM | 7.13 µM | 2.97 µM | 5.18 µM | 0.661 µM | 1.14 µM | 0.424 µM | 1.4 µM | 1.93 µM | 1.77 µM | 1.96 µM | 2.63 µM |
| CCCn1c2c(c3c(O)cccc31)C(=O)c1ccccc1-2 |  | > 100 µM | 27.6 µM | > 100 µM | > 100 µM | > 100 µM | > 100 µM | > 100 µM |  | 22.8 µM | 33.1 µM | 64.6 µM | 3.72 µM | 8.24 µM | > 100 µM | 22.5 µM |
| Cn1cnc(N)c(N=O)c1=O | > 10 µM |  | > 10 µM | > 10 µM | > 10 µM | > 10 µM | > 10 µM | > 10 µM |  |  |  |  |  |  |  |  |
| COc1ccccc1/C=C1\COc2ccc(-c3ccccc3)cc2C1=O | 4.89 µM | 37.3 µM | > 100 µM | > 100 µM | 10.5 µM | 7.29 µM | 40.4 µM | 21.1 µM | 1.55 µM | 8.93 µM | 2.75 µM | 3.81 µM | 5.29 µM | 7.6 µM | 4.54 µM | 3.27 µM |
| CO/N=C(\COc1ccc2c(=O)c3ccccc3oc2c1)c1ccccc1 | 74.5 µM | 63 µM | 78.3 µM | > 100 µM | 97.2 µM | 89.8 µM | 48.3 µM | > 100 µM | 26.8 µM | 24.2 µM | 30.6 µM | 19.1 µM | 38.4 µM | 26.8 µM | 72.1 µM | 30.4 µM |
| C=CC(=O)N1CCC(c2ccc(C(N)=O)c(-c3ccc(Oc4ccccc4)cc3)n2)CC1 | 95.4 µM | > 100 µM | > 100 µM | > 100 µM | > 100 µM | > 100 µM | > 100 µM | > 100 µM | 22.7 µM | 12.9 µM | 37.2 µM | 36.1 µM | > 100 µM | 56.2 µM | 26.9 µM | 30.9 µM |
| O=C(NCCN1CCOCC1)OCc1nc2nc(Cl)nc(N3CCOCC3)c2[nH]1 | > 100 µM | > 100 µM | > 100 µM | > 100 µM | > 100 µM | > 100 µM | > 100 µM | > 100 µM | 3.48 µM | 4.25 µM | 2.85 µM | 4.41 µM | 4.42 µM | 4.93 µM | 2.43 µM | 2.09 µM |
| COc1ccc(C(=O)Cn2c(C(=O)c3ccccc3)nc3ccccc32)cc1 | > 100 µM | > 100 µM | > 100 µM | > 100 µM | > 100 µM | > 100 µM | > 100 µM | > 100 µM | 5.9 µM | 13.3 µM | 2.81 µM |  | > 26.1 µM | 6.57 µM | 0.54 µM | 10.2 µM |
| O=[N+]([O-])/C=C/c1c(Cl)cccc1Cl | 4.96 µM | 13.3 µM | 13 µM | 8.61 µM | 4.13 µM | > 62.9 µM | 9.81 µM | 16.2 µM |  |  |  |  |  |  |  |  |

— PubChem BioAssay (NCI)
